Reference: US20170135990A1, “PHARMACEUTICAL COMPOSITIONS COMPRISING A 5,5-FUSED HETEROARYLENE FLAVIVIRIDAE INHIBITOR AND THEIR USE FOR TREATING OR PREVENTING FLAVIVIRIDAE INFECTION” (IDENIX PHARMACEUTICALS LLC, priority 2014, published 2017)

Key:
[1] = aqueous solubility and permeability, BCS classification; type: physicochemical
Description: Compound A1 has a low aqueous solubility and low permeability and, thus, is classified as a BCS class IV compound, which presents a significant formulation challenge. Cook et al., AAPS J. 2008, 10, 306-310.

[2] = pharmacokinetic study in the monkey, PEG200 solution formulation; type: in vivo; details: 500 mg/kg, fed conditions
Procedure: Initial pharmacokinetic studies on compound A1 were performed both in vitro and in the monkey using a solution formulation containing PEG200. Compound A1 in the PEG200 solution was determined to have bioavailability of 0.1% F when administered at a dose of 500 mg/kg to the monkey under fed conditions.

aqueous solubility [1]: low
bioavailability [2]: 0.1 % F
SMILES: COC(=O)N[C@H](C(=O)N1CCC[C@H]1c1nc2cc(-c3csc4c(-c5ccc(-c6cnc([C@@H]7CCCN7C(=O)[C@H](NC(=O)OC)c7ccccc7)[nH]6)cc5)csc34)ccc2[nH]1)C(C)C [compound A1, methyl N-[(1R)-2-[(2S)-2-[5-[4-[6-[2-[(2S)-1-[(2S)-2-(methoxycarbonylamino)-3-methyl-butanoyl]pyrrolidin-2-yl]-3H-benzimidazol-5-yl]thieno[3,2-b]thiophen-3-yl]phenyl]-1H-imidazol-2-yl]pyrrolidin-1-yl]-2-oxo-1-phenyl-ethyl]carbamate]
